# Assay results reported in US20070074295A1 (priority 2000, published 2007).
# Assays:
# Synapsins 1A&1B = assay: Rat Atlas Array, prefrontal cortex, chronic PCP model; assay type: in vivo
# Method: Rats were injected with PCP (2.58 mg/kg) or vehicle i.p. for 5 days according to the YRING PCP model. […] On the same day, the rats began a course of i.p. injections every 2.5 days with either PCP (2.58 mg/kg) or vehicle.
# 21 days after minipump implantation, animals were killed by cervical dislocation and the prefrontal cortex dissected and stored at −70° C. RNA was then prepared according to the protocol below and the corresponding cDNA synthesis and hybridisation procedure were conducted using the rat Atlas Array kit according to the manufacturer's instructions (Clontech).
# Results are expressed as mean relative optical densities ±SEM. Statistical significance was defined as P<0.05. N=¾ per group.
# Frozen tissue already resides in the ribolyser tubes from the dissection procedure • 1) Add 1.1 ml Qiagen lysis buffer (containing β-mercaptoethanol, final volume =3%). • 2) Perform 3×20 sec homogenisations at 6.5 g in a ribolyser. • 3) Spin 3 min in microfuge. • 4) Decant to fresh tube and re-spin 3 min. • 5) Decide at this stage if you want to dilute supernatant with more lysis buffer. • 6) Add equal volume of phenol/CHCl3 pH4.7, vortex 30 sec and leave on ice for 10 min. • 7) Re-vortex and spin 4° C. 5-10 min at 1500 g. • 8) Decant supernatant and add 100 μl H2O. Add an equal volume of phenol/CHCl3 pH4.7, vortex, spin 5-10 min at 1500 g. • 9) Decant supernatant and add 100 μl H2O. […]
# CIRL1 mRNA = assay: Semi-quantitative RT-PCR, prefrontal cortex, chronic PCP and antipsychotic treatment; assay type: in vivo, rat; settings: chronic PCP treatment
# Method: FIG. 14 illustrates the level of CIRL1 mRNA present in the prefrontal cortex of rat brain following chronic PCP and antipsychotic treatment (n=12 for all groups apart from veh-veh where n=11). […] and […] (SEQ ID NOS: 25-26) were the primer sequences used to amplify this product.
# (§1) RT-PCR for specific isoforms of CIRL was then conducted in the prefrontal cortex.
# (§2) 1 ml of lysis buffer (Qiagen), including 1% β-mercaptoethanol, was added to approximately 50-100 mg of brain tissue. Tissue samples were homogenised using a ribolyser (Hybaid) with 3 bursts at 6.5 g lasting 20 seconds each. Samples were then spun at room temperature in a microfuge for 3 minutes. The supernatant was removed and re-spun for a further 3 minutes. The supernatant was decanted to a fresh tube to which an equal volume of 70% ethanol was added. The remaining RNA isolation procedure was carried out according to the manufacturer's protocol (Qiagen).
# (§3) Synthesis of cDNA was carried out according to manufacturers protocols (Life Technologies). Briefly 3-5μg of total RNA was reverse transcribed using oligo dT priming. After cDNA synthesis, samples were aliquoted and stored at −70° C. […]
# (§4) Alterations in expression levels were determined by semi-quantitative PCR. […] Samples were removed over 4 consecutive cycles, however, the first cycle to be removed sometimes varied depending on when logarithmic amplification was detected. […]
# CIRL2 variant AB mRNA = assay: as above; assay type: in vivo, rat; settings: chronic PCP treatment
# Method: FIG. 15 illustrates the level of CIRL2 variant AB mRNA present in the prefrontal cortex of rat brain following chronic PCP and antipsychotic treatment (n=12 for all groups apart from veh-veh where n=11). […] and […] (SEQ ID NOS: 27-28) were the primer sequences used to amplify this product.
# as §1, §2, §3, §4
# CIRL3 variant AA mRNA = assay: as above; assay type: in vivo, rat; settings: chronic PCP treatment
# Method: FIG. 16 illustrates the level of CIRL3 variant AA mRNA present in the prefrontal cortex of rat brain following chronic PCP and antipsychotic treatment (n=12 for all groups apart from veh-veh where n=11) […] and […] (SEQ ID NOS: 29-30) were the primer sequences used to amplify this product.
# as §1, §2, §3, §4
# TNFα mRNA = assay: RT-PCR for TNFα mRNA in rat prefrontal cortex; assay type: in vivo; settings: acute PCP, single i.p. injection 2 mg/kg, 2 hrs and 24 hrs
# Method: Four groups of rats were treated with (a) chronic PCP, (b) chronic vehicle (control), (c) chronic PCP plus chronic clozapine (as above) or (d) chronic PCP plus chronic haloperidol (as above). The tissue was processed for RNA extraction and RT-PCP as described above, using primers specific for TNFα mRNA.
compound,measurement,setting,value
"c1ccc(C2(N3CCCCC3)CCCCC2)cc1 [PCP, phencyclidine]",Synapsins 1A&1B expression (Atlas Array),Synapsins 1A&1B,23020 ± 1412 relative optical densities
same,expression of CIRL1 (RT-PCR),CIRL1 mRNA,reduced
same,expression of CIRL2 (AB) (RT-PCR),CIRL2 variant AB mRNA,reduced
same,expression of CIRL3 (AA) (RT-PCR),CIRL3 variant AA mRNA,reduced
same,levels of TNFα in rat prefrontal cortex,TNFα mRNA,reduced
